Test [1] addresses KRAS G12D (Homo sapiens, UniProt P01116, G12D). The experiment in a line: SOS-catalyzed nucleotide exchange assay, KRAS G12D (Procedure A). Format: biochemical. To be noted: guanine nucleotide exchange (GNE). The gist of the method: (§1)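 Compounds were preincubated 60 min with a biotinylated RAS·Bodipy-GDP/Tb-streptavidin TR-FRET complex, and exchange was started with human SOS plus 3 mM GTP at RT. RAS/SOS: G12C 3 nM/40 nM, WT and G12D 1 nM/40 nM, all 60 min; G13D 1.25 nM/0 nM, 30 min. 520/495 ratio normalized to DMSO and saturating inhibitor, four-parameter fit.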

Test [2] has as its target KRAS G12V (Homo sapiens, UniProt P01116, G12V). Description: SOS-catalyzed nucleotide exchange assay, KRAS G12V (Procedure A). In kind it is biochemical. To be noted: GNE. The gist of the method:
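Biotinylated KRAS G12V was loaded with Bodipy-GDP alongside Terbium-streptavidin to form a TR-FRET complex, which was preincubated with compounds for 60 minutes in 384-well plates. Human SOS protein and unlabeled GTP were then added for 90 minutes, giving final concentrations of 1.25 nM KRAS-G12V, 160 nM SOS and 3 mM GTP. The 520/495 nm emission ratio was read on an Envision.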

The target of test [3] is KRAS WT (Homo sapiens, UniProt P01116). The experiment in a line: SOS-catalyzed nucleotide exchange assay, KRAS WT (Procedure A). To be noted: GNE. Format: biochemical. A digest of the protocol: as §1
Sequence of KRAS WT (P01116 with tags, fused parts or gaps isoform P01116-2): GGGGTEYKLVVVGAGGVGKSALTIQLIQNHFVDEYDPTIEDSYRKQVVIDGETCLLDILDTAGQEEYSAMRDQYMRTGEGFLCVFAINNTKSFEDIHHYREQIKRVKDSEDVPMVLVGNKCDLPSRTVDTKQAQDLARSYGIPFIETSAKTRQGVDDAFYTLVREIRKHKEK
For test [4], the target named is T1, AsPC-1 cells (Homo sapiens, UniProt P01116, G12D).
T1 construct: p-ERK/total ERK AlphaSureFire read-out
T1 sequence (P01116 1-188 isoform P01116-2 G12D): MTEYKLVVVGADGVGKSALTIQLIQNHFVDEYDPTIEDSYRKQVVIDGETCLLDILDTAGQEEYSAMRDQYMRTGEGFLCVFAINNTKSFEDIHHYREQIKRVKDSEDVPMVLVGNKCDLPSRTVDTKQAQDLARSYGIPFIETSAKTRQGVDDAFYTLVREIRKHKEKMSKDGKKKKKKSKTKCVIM
The experiment in a line: Cellular phospho-ERK assay, AsPC-1 cells (KRAS G12D). Format: cell-based. The note with it: 2 hours, read-out: AsPC1 pERK IC50. A digest of the protocol: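 PANC08.13 or AsPC-1 cells (homozygous KRAS G12D) were seeded overnight, then treated for 2 h at 37 °C with a 10-point 1:3 titration from 30 μM. Lysates were assayed by AlphaLISA SureFire for p-ERK and total ERK. IC50 came from a 4-parameter fit of the p-ERK/total ERK ratio.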

Results on eleven molecules are retold here after patent publication US20260347372A1, “SMALL MOLECULE INHIBITORS OF KRAS G12D MUTANT” (MERCK SHARP & DOHME LLC, priority 2023, published 2026).

The structures appear in SMILES notation.

Sequence of KRAS G12V (P01116 with tags, fused parts or gaps isoform P01116-2 G12V): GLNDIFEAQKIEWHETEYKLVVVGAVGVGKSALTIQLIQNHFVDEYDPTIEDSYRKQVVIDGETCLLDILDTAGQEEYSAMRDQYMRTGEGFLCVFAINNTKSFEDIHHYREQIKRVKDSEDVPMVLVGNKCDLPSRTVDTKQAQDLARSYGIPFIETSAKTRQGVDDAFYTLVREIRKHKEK
Sequence of KRAS G12D (P01116 with tags, fused parts or gaps isoform P01116-2 G12D): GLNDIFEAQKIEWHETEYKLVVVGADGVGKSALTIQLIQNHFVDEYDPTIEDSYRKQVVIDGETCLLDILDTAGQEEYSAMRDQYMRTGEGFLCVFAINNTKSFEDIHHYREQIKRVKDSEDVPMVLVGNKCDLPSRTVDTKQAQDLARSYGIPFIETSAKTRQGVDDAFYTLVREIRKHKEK

For the molecule `C#Cc1cc(F)cc2cc3[nH]ncc3c(-c3nccc4c3sc3nc(OC[C@@]56CCCN5C[C@H](F)C6)nc(N5C[C@H]6CC[C@@H](C5)N6)c34)c12` [Ex-86, 4-((1R,5S)-3,8-diazabicyclo[3.2.1]octan-3-yl)-8-(5-ethynyl-7-fluoro-1H-benzo[f]indazol-4-yl)-2-(((2R,7aS)-2-fluorotetrahydro-1H-pyrrolizin-7a(5H)-yl)methoxy)pyrido[4′,3′:4,5]thieno[2,3-d]pyrimidine], the IC50 (in general, the concentration at which inhibition is half-maximal) turned out to be 3.31 nM in test [1], 1240 nM in test [2], 542 nM in test [3] and 54.6 nM in test [4].
For `CCc1c(F)ccc2cc3[nH]ncc3c(-c3nccc4c3sc3nc(OC[C@@]56CCCN5C[C@H](F)C6)nc(N5C[C@H]6CC[C@@H](C5)N6)c34)c12` [Ex-87, 4-((1R,5S)-3,8-diazabicyclo[3.2.1]octan-3-yl)-8-(5-ethyl-6-fluoro-1H-benzo[f]indazol-4-yl)-2-(((2R,7aS)-2-fluorotetrahydro-1H-pyrrolizin-7a(5H)-yl)methoxy)pyrido[4′,3′:4,5]thieno[2,3-d]pyrimidine] the same measures were 3.58 nM, 412 nM, 467 nM and 86.3 nM.
Regarding `C#Cc1c(F)ccc2cc3[nH]ncc3c(-c3nccc4c3sc3nc(OC[C@@]56CCCN5C[C@H](F)C6)nc(N5C[C@H]6CC[C@@H](C5)N6CCCC#N)c34)c12` [Ex-88, 4-((1R,5S)-3-(8-(5-ethynyl-6-fluoro-1H-benzo[f]indazol-4-yl)-2-(((2R,7aS)-2-fluorotetrahydro-1H-pyrrolizin-7a(5H)-yl)methoxy)pyrido[4′,3′:4,5]thieno[2,3-d]pyrimidin-4-yl)-3,8-diazabicyclo[3.2.1]octan-8-yl)butanenitrile], the IC50 in test [1] is 100 nM; in test [2], 1780 nM; in test [3], 743 nM; in test [4] it was 368 nM.
For `C#Cc1c(F)ccc2cc3[nH]ncc3c(-c3nccc4c3sc3nc(OC[C@@]56CCCN5C/C(=C\F)C6)nc(N5C[C@H]6CC[C@@H](C5)N6)c34)c12` [Ex-89, 4-((1R,5S)-3,8-diazabicyclo[3.2.1]octan-3-yl)-8-(5-ethynyl-6-fluoro-1H-benzo[f]indazol-4-yl)-2-(((S,Z)-2-(fluoromethylene)tetrahydro-1H-pyrrolizin-7a(5H)-yl)methoxy)pyrido[4′,3′:4,5]thieno[2,3-d]pyrimidine] the same measures were 1.67 nM, 48.8 nM, 32.8 nM and 8.18 nM.
Take `C#Cc1c(F)ccc2cc3[nH]ncc3c(-c3nccc4c3sc3nc(OCC5(C#N)CCOCC5)nc(N5C[C@H]6CC[C@@H](C5)N6)c34)c12` [Ex-90, 4-(((4-((1R,5S)-3,8-diazabicyclo[3.2.1]octan-3-yl)-8-(5-ethynyl-6-fluoro-1H-benzo[f]indazol-4-yl)pyrido[4′,3′:4,5]thie-no[2,3-d]pyrimidin-2-yl)oxy)methyl)tetrahy-dro-2H-pyran-4-carbonitrile]: the IC50 was 187 nM in test [1], greater than 11100 nM in test [2], greater than 11100 nM in test [3] and 3310 nM in test [4].
Turning to `C#Cc1c(F)ccc2cc3[nH]ncc3c(-c3nccc4c3sc3nc(OCC5(C(=O)NC)CC5)nc(N5C[C@H]6CC[C@@H](C5)N6)c34)c12` [Ex-91, 1-(((4-((1R,5S)-3,8-diazabicyclo[3.2.1]octan-3-yl)-8-(5-ethynyl-6-fluoro-1H-benzo[f]indazol-4-yl)pyrido[4′,3′:4,5]thie-no[2,3-d]pyrimidin-2-yl)oxy)methyl)-N-methylcyclopropane-1-carboxamide], the IC50 in test [1] is 50.6 nM; in test [2] it was greater than 11100 nM; in test [3] it was greater than 11100 nM; in test [4] it was 5030 nM.
Turning to `C#Cc1c(F)ccc2cc3[nH]ncc3c(-c3nccc4c3sc3nc(OCC56CCCC5N(C)CCC6)nc(N5C[C@H]6CC[C@@H](C5)N6)c34)c12` (stereo partly drawn) [Ex-92, 4-((1R,5S)-3,8-diazabicyclo[3.2.1]octan-3-yl)-8-(5-ethynyl-6-fluoro-1H-benzo[f]indazol-4-yl)-2-((1-methyloctahydro-4aH-cyclopenta[b]pyridin-4a-yl)methoxy)pyrido[4′, 3′:4,5]thieno[2,3-d]pyrimidine], the IC50 in test [1] amounted to 1.99 nM; in test [2], 88.2 nM; in test [3], 57.4 nM; in test [4], 18.1 nM.
For `C#Cc1c(F)ccc2cc3[nH]ncc3c(-c3nccc4c3sc3nc(OCC56CCCN5CC(=C(F)F)C6)nc(N5C[C@H]6CC[C@@H](C5)N6)c34)c12` (stereo partly drawn) [Ex-93, 4-((1R,5S)-3,8-diazabicyclo[3.2.1]octan-3-yl)-2-(((S)-2-(difluoromethylene)tetra-hydro-1H-pyrrolizin-7a(5H)-yl)methoxy)-8-(5-ethynyl-6-fluoro-1H-benzo[f]indazol-4-yl)pyrido[4′,3′:4,5] thie-no[2,3-d]pyrimidine] the same measures were 1.16 nM, 94.3 nM, 72.9 nM and 18 nM.
For `C#Cc1c(F)ccc2cc3[nH]ncc3c(-c3nccc4c3sc3nc(OCC5(CN6CC[C@@H](F)C6)CC5)nc(N5C[C@H]6CC[C@@H](C5)N6)c34)c12` [Ex-94, 4-((1R,5S)-3,8-diazabicyclo[3.2.1]octan-3-yl)-8-(5-ethynyl-6-fluoro-1H-benzo[f]indazol-4-yl)-2-((1-(((R)-3-fluoropyrrolidin-1-yl)methyl)cyclopropyl)methoxy)pyrido[4′,3′: 4,5]thieno[2,3-d]pyrimidine], the IC50 is 2.99 nM in test [1], 1950 nM in test [2], 847 nM in test [3] and 85.9 nM in test [4].
For `C#Cc1c(F)ccc2cc3[nH]ncc3c(-c3nccc4c3sc3nc(OCC5(CN(C)C)COC5)nc(N5C[C@H]6CC[C@@H](C5)N6)c34)c12` [Ex-95, 1-(3-(((4-((1R,5S)-3,8-diazabicyclo[3.2.1]octan-3-yl)-8-(5-ethynyl-6-fluoro-1H-benzo[f]indazol-4-yl)pyrido[4′,3′:4,5]thie-no[2,3-d]pyrimidin-2-yl)oxy)methyl)oxetan-3-yl)-N,N-dimethylmethanamine] the same measures were 5.29 nM, 6760 nM, 2800 nM and 180 nM.
For `C#Cc1c(F)ccc2cc3[nH]ncc3c(-c3nccc4c3sc3nc(OC[C@]5(CN(C)C)CC5(F)F)nc(N5C[C@H]6CC[C@@H](C5)N6)c34)c12` [Ex-96, 1-((1R)-1-(((4-((1R,5S)-3,8-diazabicyclo[3.2.1]octan-3-yl)-8-(5-ethynyl-6-fluoro-1H-benzo[f]indazol-4-yl)pyrido[4′,3′:4,5]thie-no[2,3-d]pyrimidin-2-yl)oxy)methyl)-2,2-difluorocyclopropyl)-N,N-dimethylmethanamine] the same measures were 1.62 nM, 248 nM, 259 nM and 22.8 nM.
